Source: ChEMBL document CHEMBL1123818, “Synthesis and biological activity of 5-(2,2-difluorovinyl)-2'-deoxyuridine” (1987)
Values after ≈ are worked out from the molar mass of the structure shown.

Experiments:
[1] = Compound was tested for antiviral activity against herpes simplex virus( HSV-2-196 strain in primary rabbit kidney cells; type: functional; conditions: Oryctolagus cuniculus
[2] = Compound was tested for antiviral activity against herpes simplex virus( HSV-1-F) strain in primary rabbit kidney cells; type: functional; conditions: Oryctolagus cuniculus
MOLT-4F = assay: Compound was tested for antitumor activity against human T-lymphoblast Molt/4F cells; type: functional
[3] = Compound was tested for antiviral activity against herpes simplex virus( HSV-1-KOS) strain in primary rabbit kidney cells; type: functional; conditions: Oryctolagus cuniculus
[4] = Compound was tested for antiviral activity against herpes simplex virus( HSV-2-G) strain in primary rabbit kidney cells; type: functional; conditions: Oryctolagus cuniculus
Raji [5] = assay: Compound was tested for antitumor activity against thymidine kinase deficient human B-lymphoblast […] cells; type: functional
Human alphaherpesvirus 1 [6] = assay: (§1) Compound was tested for antiviral activity against herpes simplex virus (thymidine kinase deficient herpes simplex virus ( HSV-1 (B2006) in primary rabbit kidney cells; type: functional
[7] = Compound was tested for antiviral activity against herpes simplex virus( HSV-2-lyons) strain in primary rabbit kidney cells; type: functional; conditions: Oryctolagus cuniculus
FM3A [8] = assay: Compound was tested for antitumor activity against FM3A/TK- cells; type: functional; conditions: Mus musculus
Raji [9] = assay: Compound was tested for antitumor activity against human B-lymphoblast Raji/0 cells; type: functional
FM3A [10] = assay: Compound was tested for antitumor activity against FM3A/0 mammary carcinoma cells; type: functional; conditions: Mus musculus
L1210 = assay: Compound was tested for antitumor activity against L1210 cells; type: functional; conditions: Mus musculus
[11] = Compound was tested for antiviral activity against […] Vassicular stomatitis in primary rabbit kidney cells; type: functional; conditions: Oryctolagus cuniculus
[12] = Compound was tested for antiviral activity against herpes simplex virus( HSV-1-McIntyre) strain in primary rabbit kidney cells; type: functional; conditions: Oryctolagus cuniculus
[13] = Compound was tested for antitumor activity against HSV-1 TK gene transformed TK deficient FM3A cells; type: functional; conditions: Mus musculus
Human alphaherpesvirus 1 [14] = assay: as §1; type: functional, Oryctolagus cuniculus
Oryctolagus cuniculus = species on record: Oryctolagus cuniculus; assay: Compound was tested for antiviral activity against Vaccinia virus in primary rabbit kidney cells; type: functional
[15] = Compound was tested for antiviral activity against herpes simplex virus (HSV-1-McIntyre) strain in primary rabbit kidney cells; type: functional; conditions: Oryctolagus cuniculus
Human alphaherpesvirus 1 [16] = assay: Compound was tested for antiviral activity against herpes simplex virus (thymidine kinase deficient herpes simplex virus( HSV-1 (B2006) in primary rabbit kidney cells; type: functional, Oryctolagus cuniculus

Row | Structure (SMILES) | MIC50 [1] [µg/mL] | MIC50 [2] [µg/mL] | MIC50 (MOLT-4F) [µg/mL] | MIC50 [3] [µg/mL] | MIC50 [4] [µg/mL] | MIC50 (Raji [5]) [µg/mL] | MIC50 (Human alphaherpesvirus 1 [6]) [µg/mL] | MIC50 [7] [µg/mL] | MIC50 (FM3A [8]) [µg/mL] | MIC50 (Raji [9]) [µg/mL] | MIC50 (FM3A [10]) [µg/mL] | MIC50 (L1210) [µg/mL] | MIC50 [11] [µg/mL] | MIC50 [12] [µg/mL] | MIC50 [13] [µg/mL] | MIC50 (Human alphaherpesvirus 1 [14]) [µg/mL] | MIC50 (Oryctolagus cuniculus) [µg/mL] | MIC50 [15] [µg/mL] | MIC50 (Human alphaherpesvirus 1 [16]) [µg/mL]
1 | O=c1[nH]c(=O)n([C@@H]2C[C@H](O)[C@@H](CO)O2)cc1C=C(F)F | 100 (≈ 345 µM) | 20 (≈ 68.9 µM) | > 100 | 20 (≈ 68.9 µM) | 150 (≈ 517 µM) | > 100 | > 200 | 70 (≈ 241 µM) | > 100 | > 100 | > 100 | > 100 | > 200 | 20 (≈ 68.9 µM) | > 100 |  |  |  | 
2 | O=c1[nH]c(=O)n([C@H]2C[C@H](O)[C@@H](CO)O2)cc1/C=C/Br [BRIVUDINE] | 7 (≈ 21 µM) | 0.02 (≈ 0.06 µM) | > 100 | 0.02 (≈ 0.06 µM) | 2 (≈ 6 µM) | 78 (≈ 234 µM) |  | 7 (≈ 21 µM) | 0.4 (≈ 1.2 µM) | 29 (≈ 87.1 µM) | 13 (≈ 39 µM) | 31 (≈ 93.1 µM) | > 200 | 0.02 (≈ 0.06 µM) | 0.0004 (≈ 0.0012 µM) | > 200 | 20 (≈ 60 µM) |  | 
3 | Oc1ncc(C=C(F)F)c(O)n1 | > 200 | > 200 | > 100 | > 200 | > 200 | > 100 |  | > 200 | > 100 | > 100 | > 100 | > 100 | > 200 |  | > 100 |  | > 200 | > 200 | > 200
4 | O=c1[nH]c(=O)n([C@H]2C[C@H](O)[C@@H](CO)O2)cc1C=C(F)F | 10 (≈ 34.5 µM) | 0.3 (≈ 1.03 µM) | 42 (≈ 145 µM) | 0.2 (≈ 0.689 µM) | 6 (≈ 20.7 µM) | > 100 |  | 3 (≈ 10.3 µM) | > 100 | 33 (≈ 114 µM) | 55 (≈ 190 µM) | 30 (≈ 103 µM) | > 200 | 0.3 (≈ 1.03 µM) | 0.25 (≈ 0.861 µM) | > 200 | 15 (≈ 51.7 µM) |  | 
5 | O=c1[nH]c(=O)n([C@H]2C[C@H](O)[C@@H](CO)O2)cc1I [IDOXURIDINE] | 3 (≈ 8.47 µM) | 0.2 (≈ 0.565 µM) |  | 0.15 (≈ 0.424 µM) | 1.5 (≈ 4.24 µM) |  |  | 1.5 (≈ 4.24 µM) |  |  |  |  | > 200 | 0.3 (≈ 0.847 µM) |  | > 200 | 0.5 (≈ 1.41 µM) |  | 
6 | O=c1[nH]c(=O)n([C@H]2C[C@H](O)[C@@H](CO)O2)cc1C=C(Br)Br | 150 (≈ 364 µM) | 70 (≈ 170 µM) | > 100 | 20 (≈ 48.5 µM) | 200 (≈ 485 µM) | > 100 |  | 200 (≈ 485 µM) | > 100 | > 100 | > 100 | > 100 | > 400 | 20 (≈ 48.5 µM) | 7 (≈ 17 µM) | > 150 | 100 (≈ 243 µM) |  | 
